Experimental findings from patent publication US20130158024A1, “TRICYCLIC NECROSTATIN COMPOUNDS” (priority 2005, published 2013) are described below.

Series [1] concerns U937 cells. The series can be described thus: Oxidative stress (menadione) induced death of U937 cells, ATP assay. Type of series: cell-based, human. The conditions noted are these: 250 μM menadione, 24 hours. Here is the method: Viability of TNFα/zVAD/DMSO or manadione/DMSO blank treated cells is also shown (- - -). Viability was determined using ATP-Lite-M assay (Packard). Numbers represent percentages of live cells. The values were normalized relative to the zVAD or DMSO treated controls, which were set as 100% viability.
In this and subsequent panels, cell viability was determined via ATP assay. Numbers represent viability normalized to that of the DMSO-treated cells in the absence of TNFα and menadione. Throughout, error bars represent standard deviations. […] Representative images are shown. […] Protein lysates were subjected to western blotting with antibodies to LC3 and to tubulin. The ratio of LC3-II to tubulin signals was calculated (“Ratio”) and normalized to the value in the control sample. […] Alternatively, cells were treated with 2 μM rapamycin. […] Numbers represent viability normalized to that of the compound-treated cells in the absence of TNFα. In FIG. 28H, expression of beclin-1 (“Bec”) and tubulin (“Tub”) in the stable populations of cells in FIG. 28G was analyzed by western blotting.

Series [2] has as its system Jurkat T cells. The series can be described thus: Necrosis (CICD) of Jurkat T cells induced by Fas ligand, cycloheximide and zVAD, ATP assay. Type of series: cell-based, human. The note with it: FasL/CHX/zVAD. Here is the method:
Jurkat cells were treated with 5 ng/ml of FasL without (A) or with cyclohexamide (CHX) (B) to induce apoptosis, or 5 ng/ml FasL, 1 μg/ml of CHX and 100 μM of zVAD.fmk to induce CICD (B). […] Cell viability was determined after 24 hours of incubation with indicated reagents using CellTiter-Glo ATP assay. The values represent viability relative to the control Jurkat cells without the treatment of FasL, which was set as 100% viability.
FIG. 34A is a graph showing the results of treating Jurkat T cells with Fas ligand (5 ng/ml), cyclohexamide (1 μg/ml) and zVAD (100 μM) in the presence of the indicated amounts of anti-necrotic compounds (4) and (5). Viability was determined 36 hours later using an ATP assay. The viability values are relative to the samples lacking Fas ligand, which were used as 100% viability controls. FIG. 34B is a graph as in FIG. 34A, in which the anti-necrotic compounds are (19) and (20).
Compounds were also tested in another necrosis assay utilizing human Jurkat T cells, Fas ligand to induce cell death, and zVAD to inhibit the apoptosis pathway. After 36 hours, cell viability was measure by the commercial CellTiter ATP cell viability assay (Promega).

The subject of series [3] is FADD-deficient Jurkat T cells treated with TNF-α. The series can be described thus: Inhibition of necroptosis (CICD) in FADD-deficient Jurkat T cells treated with TNF-α, ATP-based viability. In kind it is cell-based, human.
For series [4], the system named is U937 cells. The series can be described thus: Necrosis of U937 cells induced by TNFα and zVAD.fmk (primary and secondary screen), ATP assay. In kind it is cell-based, human. The note with it: U937, 72 hours. Here is the method: We plated U937 cells in 384-well plates at 5,000-10,000 cells per well in 40-μl phenol red-free RPMI 1640 medium containing 100 μM zVAD.fmk and 40 ng ml^−1 human TNFα using a Multidrop dispenser (Thermo Electron). We added 100 nl of the DiverSetE (5 mg ml^−1 in DMSO, Chembridge) using a Seiko-based custom-built pin transfer robot (Institute of Chemistry and Cell Biology, Harvard Medical School). After 72 hours, we assessed cell viability using a luminescence-based ATP assay (ATPLite-M, PerkinElmer). We also dispensed cells not treated with TNFα in each plate as a positive control. We purchased Nec-1 and other preliminary positive hits from Chembridge for individual retesting.
Using a known paradigm of death receptor mediated caspase-independent cell death in human U937 cells, we established a high-throughput screen in 384 well format for small molecule inhibitors of caspase-independent cell death (CICD). In this system, U937 cells were induced to undergo CICD in the presence of TNFα and zVAD.fmk, and the rate of cell death was determined by an ATP-Lite-M assay, a commercial luminescence-based assay measuring cellular ATP levels (Packard). U937 cells were chosen because these cells can be induced to undergo CICD very efficiently upon TNFα/zVAD treatment in the absence of additional, stress-inducing sensitizing stimuli, such as CHX, making this system perfectly suited for reliable identification of CICD inhibitors. Furthermore, rapid suspension growth kinetics of U937 cells results in the availability of large quantities of cells, which translates into robust signals ideal for high throughput screening. ATP-Lite-M assay was chosen because among all the different assay systems tested, it gives the most consistent and robust signal, which is also critical for high throughput screening. Exposure of U937 cells to TNFα alone led to partial cell death, whereas co-treatment with TNFα and caspase inhibitor zVAD.fmk produced significant increase in the amount of cell death and ATP loss consistent with the published observations. In addition, in the presence of zVAD.fmk, the morphology of cell loss changed from apoptosis with cell shrinkage, nuclear fragmentation, membrane blebbing to necrosis, characterized by cell swelling, increase in cytosolic density, and early loss of plasma membrane integrity. Other cell death assays, such as an MTT assay (mitochondrial metabolism) and Sytox assay (permeability of the plasma membrane), were used as alternative means to validate the screen, and consistently produced results similar to those obtained using ATP-Lite-M assay, which confirmed that the ATP-Lite-M assay can be used to accurately measure the extent of CICD.
In a primary screen, U-937 cells (5×10^5 or 7.5×10^5 cells/ml) were first exposed to zVAD-fmk (100 μM). Thirty minutes later the same cells were exposed to a chemical compound from the library (5 mg/ml, dissolved in 0.1-0.5 μl of DMSO, giving a final DMSO concentration of 0.3% to 1.5%). After an additional thirty minutes, TNFα (40 ng/ml) was added to the cell culture medium. The cells were then incubated at 37 C for 72 hours, and were then assayed for cellular ATP levels. […] Compounds which maintained cellular ATP levels were compounds which blocked necrosis triggered by zVAD-fmk and TNFα.
In a secondary screen, the compounds identified from the first screen, above, to decrease necrosis induced by zVAD-fmk and TNFα were assayed for their potency. Serial dilution of each chemical compound was performed and the compounds were administered to U-937 cells, as per the primary screen. The concentrations of each compound were 70 μM, 23 μM, 8 μM, and 2.5 μM. The level of necrosis occurring in response to zVAD-fmk, TNFα, and the various concentrations of chemical compounds was assayed as described above for the primary screen.

Series [5] deals with U-937 cells. The series can be described thus: Necrosis of low density U-937 cells induced by zVAD-fmk and DMSO, ATP levels. Type of series: cell-based, human. The note with it: U-937 1×10^5 cells/ml, 72 hours. Here is the method:
Methods for the identification of chemical compounds that decrease cell necrosis induced, for example, by zVAD-fmk/DMSO at a low cell density (e.g., 1×10^5 cells/ml) are achieved essentially as described above, except, the inducer of necrosis is zVAD-fmk/DMSO, rather than zVAD-fmk/TNFα.
Exposure of low density U-937 cells (1×10^5 cells/ml) to zVAD-fmk (100 μM) and DMSO (0.5%) for 72 hours results in cell death by necrosis. The compounds identified to decrease cell necrosis triggered by zVAD-fmk and TNFα, compounds 115807, 115681, 210227, and 215686 from the ChemBridge chemical library, were also evaluated for their ability to decrease cell necrosis induced by zVAD-fmk and DMSO. The cells (1×10^5 cells/ml) were first exposed to zVAD-fmk, and then thirty minutes later to the above-identified small molecules that decrease necrosis. After an additional 30 minutes, the cells were exposed to DMSO. 72 hours after exposure to the compounds, cellular ATP levels were measured, as described above.

The subject of series [6] is FADD deficient Jurkat cells. The conditions noted are these: compound alone.
Where [7] appears, read: Homo sapiens, Jurkat, 24 h, read-out: EC50 (μM) for inhibition of necroptosis.

Entries after “also recorded” stand apart in the source; their conditions may differ. Like-named read-outs stand apart in the source and are kept apart here.

Take vitamin E [reference compound]: the “protection from menadione induced cell death, in words” value (“protection” for short) in series [1] is “provided protection against menadione”.

With “superoxide dismutase [reference compound]”, the “protection” value in series [1] was “provided protection against menadione”.

For the compound catalase [reference compound], the “protection” value in series [1] is recorded as “provided protection against menadione”.

With `COc1ccc([C@H]2[C@@H]3CCc4ccc(OC)cc4C3=NN2C(C)=O)cc1` (relative stereo) [Compound 142, (3R,3aS)-rel-2-acetyl-3,3a,4,5-tetrahydro-3-(4-methoxyphenyl)-8-methoxy-2H-benz[g]indazole], the “inhibition of CICD/necrosis of Jurkat cells, in words” value in series [2] was “only the cis isomers (4) (FIG. 34A) and (19) (FIG. 34B) were found to efficiently inhibit necrosis”.

What is called EC50 is the concentration giving half of the maximal effect. As to `COc1ccc2c(c1)C1=NN(C(C)=O)[C@@H](c3ccc(F)cc3)[C@@H]1CC2` (relative stereo) [Compound 160, (3R,3aS)-rel-2-acetyl-3,3a,4,5-tetrahydro-3-(4-fluorophenyl)-8-methoxy-2H-benz[g]indazole], the “inhibition of CICD/necrosis of Jurkat cells, in words” value in series [2] was “only the cis isomers (4) (FIG. 34A) and (19) (FIG. 34B) were found to efficiently inhibit necrosis”. In series [3] (setting [7]), the EC50 is 3.7 ± 0.75 µM.

With `O=c1[nH]c2ccccc2c2ccccc12` [6(5H)-Phenanthridione, reference compound], in series [2], the “inhibition of CICD/necrosis of Jurkat cells, in words” value is “failed to inhibit CICD of Jurkat cells”.

As to `CN1C(=O)C(Cc2c[nH]c3ccccc23)NC1=S` (stereo not shown) [Compound 115807], the “inhibition of necrosis induced by TNFα/zVAD.fmk, in words” value (from here on “inhibition of necrosis induced”) in series [4] is “identified to decrease necrosis in response to exposure of the cell to zVAD-fmk and TNFα”. For the same compound, in series [5], the “decrease of necrosis induced by zVAD-fmk/DMSO, in words” value (“decrease … by zVAD-fmk/DMSO, in words” for short) is recorded as “also decreased necrosis induced by zVAD-fmk/DMSO”.

In the case of `COc1ccc2c(c1)C1=NN(C(C)=O)[C@@H](c3ccc(F)cc3)[C@H]1CC2` (relative stereo) [Compound 161, (3R,3aR)-rel-2-acetyl-3,3a,4,5-tetrahydro-3-(4-fluorophenyl)-8-methoxy-2H-benz[g]indazole], the “inhibition of CICD/necrosis of Jurkat cells, in words” value in series [2] is “efficiently inhibit necrosis and result in high cell viability”. The EC50 in series [3] (setting [7]) worked out at 0.96 ± 0.085 µM.

As to `CC(=O)N[C@@H](CS)C(=O)O` [N-acetyl-cysteine, reference compound], the “protection” value in series [1] is given as “provided protection against menadione”.

By melting point is commonly meant the temperature of the solid-liquid transition. With `COc1ccc2c(c1)C1=NN(C(C)=O)[C@@H](c3ccc4c(c3)OCO4)[C@H]1CC2` (relative stereo) [Compound 177, (3R,3aR)-rel-2-acetyl-3,3a,4,5-tetrahydro-3-(3,4-methylenedioxyphenyl)-8-methoxy-2H-benz[g]indazole], the melting point was 206 to 209 °C. The EC50 in series [3] (setting [7]) is 2.6 ± 1.3 µM.

For `CN1C(=O)NC(Cc2c[nH]c3c(Cl)cccc23)C1=O` (stereo not shown) [7-Cl—O-Nec-1], in series [6], the “LD50 (nonspecific toxicity)” value is on record as over 1 mM. The “antinecroptotic (anti-CICD) activity, in words” value in series [3] (FADD-deficient Jurkat cells, TNFα) is listed as “equally potent anti-CICD activity; also recorded: possessing antinecroptotic activity in vitro similar to that of 7-Cl-Nec-1”. For the same compound, the EC50 in series [3] (Jurkat FADD deficient cells treated with TNFα, read-out: EC50) amounted to 0.206 ± 0.033 µM.

With `CC(=O)N1N=C2c3cc(C)ccc3OC[C@@H]2[C@@H]1c1ccc(F)cc1` (relative stereo) [Compound 185, (3R,3aR)-rel-2-acetyl-2,3,3a,4-tetrahydro-3-(4-fluorophenyl)-8-methyl-[1]benzopyrano[4,3-c]pyrazole], the melting point is 243 to 246 °C. For the same compound, the EC50 in series [3] (setting [7]) came out at 11.6 ± 6.1 µM.

With `Cc1cc(O)c(C(=O)/C=C/c2ccc(O)c([N+](=O)[O-])c2)c(=O)o1` [Compound 115681], the “inhibition of necrosis induced” value in series [4] is “identified to decrease necrosis in response to exposure of the cell to zVAD-fmk and TNFα”. Moreover, in series [5], the “decrease … by zVAD-fmk/DMSO, in words” value is listed as “also decreased necrosis induced by zVAD-fmk/DMSO”.

On to `COc1ccc(/C=C/C(=O)/C=C/c2ccc(OC)c(OC)c2)cc1OC` [Compound 215686], for which the “inhibition of necrosis induced” value in series [4] was “identified to decrease necrosis in response to exposure of the cell to zVAD-fmk and TNFα”. Further, the “decrease … by zVAD-fmk/DMSO, in words” value in series [5] is “also decreased necrosis induced by zVAD-fmk/DMSO”.

`CC(=O)N1N=C2c3ccccc3CC[C@@H]2[C@@H]1c1ccc(F)cc1` (relative stereo) [Compound 165, (3R,3aR)-rel-2-acetyl-3,3a,4,5-tetrahydro-3-(4-fluorophenyl)-2H-benz[g]indazole]: the melting point is 166 to 168 °C. The EC50 in series [3] (setting [7]) is 5.4 ± 1.1 µM.

`COc1ccc([C@H]2[C@H]3CCc4ccccc4C3=NN2C(C)=O)cc1` (relative stereo) [Compound 167, (3R,3aR)-rel-2-acetyl-3,3a,4,5-tetrahydro-3-(4-methoxyphenyl)-2H-benz[g]indazole] had a melting point of 257 to 260 °C. Moreover, the EC50 in series [3] (setting [7]) turned out to be 0.84 ± 0.32 µM.

As to `O=C1NCCc2c(OCCCCN3CCCCC3)cccc21` [DPQ, 3,4-Dihydro-5[4(1-piperindinyl)butoxy]-1(2H)-isoquinoline, reference compound], the “inhibition of CICD/necrosis of Jurkat cells, in words” value in series [2] is given as “failed to inhibit CICD of Jurkat cells”.
